Experimental data taken from patent publication US11180461B2, “Triazoles as Kv3 inhibitors” (AUTIFONY THERAPEUTICS LIMITED, priority 2012, dated 2021).

How the values were obtained:
[1] = system: Long Evans adult rats with noise-induced tinnitus; assay: Model of tinnitus: gap pre-pulse inhibition of acoustic startle in noise-exposed Long Evans rats; type: in vivo, rat
Procedure: Twenty Long Evans adult rats were exposed to a unilateral 116 dB, 16 kHz octave-band noise for one hour in order to induce hearing loss and chronic tinnitus. Ten control rats received a sham noise exposure. Approximately thirty days after the noise exposure hearing thresholds were determined for each animal. Animals were then assessed for the presence of tinnitus using a gap pre-pulse inhibition of acoustic startle paradigm similar to that described by Turner J G, Brozoski T J, Bauer C A, Parrish J L, Myers K, Hughes L F, Caspary D M. Behav Neurosci. 2006 February; 120(1):188-95. In this test, rats were placed on a motion sensor that measured the startle amplitude of the animals in response to a sudden loud sound (115-dB SPL, 20-ms duration) emitted by a loudspeaker located in the ceiling of the cage. It is known that a brief, non-startling sound or “pre-pulse”, prior to the startle sound can reduce the startle amplitude, a phenomenon known as pre-pulse inhibition. In the present study, the pre-pulse is substituted by a 50 ms silence gap in a constant sound 100 ms prior to the startle sound. If the gap is perceived by the animal, then then startle response will be inhibited. However, if the animal has tinnitus, then the tinnitus sound may fill the gap and will startle as if there were no gap (reduced or absent gap pre-pulse inhibition). A drug that reduces the tinnitus will therefore restore gap pre-pulse inhibition.
The pitch of tinnitus is typically in the same range as the hearing loss, which in turn is most marked at the frequencies of the noise trauma. Thus each animal was tested for gap pre-pulse inhibition using gaps in tones of 10, 12.5, 16, 20, and 25 kHz at 60-65 dB SPL. As a control, the animals were also tested with gaps in a broadband sound of the same amplitude. Irrespective of whether the animals have tinnitus, it is unlikely that the tinnitus would fill the gap in the broadband sound, and thus this provides a control for whether the noise-trauma might have affected the gap detection ability of the rats. […]

[2] = system: chinchilla model of acute noise-induced hearing loss; assay: Chinchilla model of acute noise-induced hearing loss (auditory brainstem response thresholds); type: in vivo; details: 60 mg/kg i.p., doses 12 hours apart, 5 pre- and 5 post-noise; 21 days after noise exposure; p<0.01
Procedure: The otoprotective efficacy of COMPOUND X (i.e. the ability to prevent or reduce the development of permanent acute noise-induced hearing loss) was investigated using a chinchilla model of acute noise-induced hearing loss, as follows:
Subjects comprised male, 3 year old chinchillas (Laniger), 10 animals per group.
Vehicle (20% Captisol®, 0.5% w/v HPMC K15M and 0.5% w/v Tween-80™) was prepared using autoclaved deionized water not more than one week prior to use. A suspension of COMPOUND X in the vehicle at 10 mg/ml was prepared less than 24 hours prior to administration. COMPOUND X was administered at 60 mg/kg via the intraperitoneal route, with doses 12 hours apart. Five injections were given pre-noise exposure and five post-noise exposure. […]
Auditory brainstem responses (ABRs) were collected prior to noise exposure and 21 days after noise exposure. […] Thresholds were measured in response to tone-bursts with 1 ms rise/fall and a 0 ms plateau gated by a Blackman envelope and centred at the frequencies of 2, 4, 6 and 8 kHz, presented at 30/s. […]
The thresholds for ABRs at the four different sound frequencies at day 21 post-noise exposure were compared to the thresholds at baseline, prior to noise exposure in order to determine a threshold shift for each animal. The data were then analysed using a 2-way ANOVA, with treatment and frequency as main factors.

[3] = system: aged and young Fischer 344 (F344) rats; assay: Model of central auditory processing deficit: auditory gap detection (gap-induced PPI of startle) in F344 rats; type: in vivo, rat
Procedure: The ability of COMPOUND X to improve auditory temporal processing in the rat, was examined using an auditory gap detection procedure in aged female Fischer 344 (F344) rats with an average age of 19.5±1.9 months, and in young F344 rats with an average age of 3 months. COMPOUND X, at doses of 30 or 60 mg/kg, or vehicle were administered via the intraperitoneal route on three test occasions using a crossover design, with an interval of at least 7 days between occasions.
Hearing thresholds in each rat were determined under anaesthesia using the auditory brainstem response (ABR) prior to the first drug administration. ABRs were recorded using subcutaneous needle electrodes in a sound attenuated chamber using pure tone bursts as stimuli (5 ms duration, frequency range 2-40 kHz).
The gap detection procedure evaluated the ability of the rats to detect short gaps in background noise by measuring the degree of inhibition that the gap afforded in the animal's startle response to a subsequent loud sound, a phenomenon known as pre-pulse inhibition (PPI). Testing was performed in a sound attenuated chamber. During the testing procedure, the rat was confined to a small wire mesh cage on a motion-sensitive platform. The animal's reflex movements were detected and transduced by a piezoelectric accelerometer. The startle response was evaluated in a 100 ms window beginning at the onset of the startle stimulus (a 110 dB SPL broad-band noise burst of 50 ms duration embedded in a background continuous broad-band noise of 65 dB SPL). Acoustic stimulation was presented via a loudspeaker placed 12 cm above the platform inside the chamber.
PPI of the startle response was induced by gaps of different durations (5-50 ms) preceding the startle stimulus by 70 ms. The degree of PPI was calculated from the startle response amplitude in the presence of the gap relative to the startle response amplitude in the absence of the gap. A two-way ANOVA with the Bonferroni post-hoc test was used to compare the degree of PPI before and after the drug applications.

Kv3 channels = details: cited from earlier work

Row | Structure (SMILES) | gap pre-pulse inhibition ([1]; animals with evidence of tinnitus, 30 mg/kg i.p. 1-2 hours prior to testing, p<0.05) | gap pre-pulse inhibition ([1]; animals with evidence of tinnitus, 60 mg/kg i.p. 1-2 hours prior to testing, p=0.01) | gap pre-pulse inhibition ([1]; control animals or noise-exposed animals without tinnitus) | permanent threshold shift in ABR [2] | degree of PPI (gap detection) ([3]; aged F344 rats, 30 mg/kg i.p., 30 ms gap duration, p<0.001) | degree of PPI (gap detection) ([3]; aged F344 rats, 30 mg/kg i.p., gap durations of 5, 10, and 15 ms) | degree of PPI (gap detection) ([3]; aged F344 rats, 60 mg/kg i.p., 30 ms gap duration, p<0.001) | degree of PPI (gap detection) ([3]; young F344 rats, 30 mg/kg i.p.) | degree of PPI (gap detection) ([3]; young F344 rats, 60 mg/kg i.p.) | inhibition of Kv3 channels (Kv3 channels)
1 | CC[C@@]1(C)NC(=O)N(c2cnc(Oc3ccc(C)c(OC(F)(F)F)c3)nc2)C1=O [COMPOUND X, (5R)-5-ethyl-5-methyl-3-[2-({4-methyl-3-[(trifluoromethyl)oxy]phenyl}oxy)-5-pyrimidinyl]-2,4-imidazolidinedione] | significantly restored | significantly restored | no effect | significantly reduced | significantly increased | significant improvement | significantly increased | tended to increase the degree of PPI, but the increases were not significant | tended to increase the degree of PPI, but the increases were not significant | –
2 | CC[N+](CC)(CC)CC [Tetraethylammonium (TEA), Tetraethylammonium] | – | – | – | – | – | – | – | – | – | inhibit the channels at low millimolar concentrations
